Experimental data: ChEMBL document CHEMBL1201862, “PubChem BioAssay data set” (2004)
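Each compound was tested at five concentrations against cells in 96-well plates for 48 hours. Here, GI50 denotes the concentration required for 50% inhibition of growth.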 Activity calls are given as the source filed them. No stated cut-off is given here; in the data, active = GI50 up to about 1.1 µM and inactive = higher.

Columns and labels:
Experiment in all cases: DTP human tumour cell line panel, 48 h
[1] = tested on: U-251
[2] = tested on: A549
[3] = tested on: EKVX
[4] = tested on: MOLT-4
[5] = tested on: HT-29
[6] = tested on: ACHN
[7] = tested on: NCI-H23
[8] = tested on: OVCAR-4
[9] = tested on: RXF 393
[10] = tested on: HL-60
[11] = tested on: OVCAR-3
[12] = tested on: SK-MEL-28
[13] = tested on: MDA-MB-435
[14] = tested on: K562
[15] = tested on: CAKI-1
[16] = tested on: NCI-H522
[17] = tested on: T47D
[18] = tested on: HOP-62
[19] = tested on: M14
[20] = tested on: UACC-62
[21] = tested on: IGROV-1
[22] = tested on: PC-3
[23] = tested on: OVCAR-8
[24] = tested on: MDA-N
[25] = tested on: MDA-MB-231
[26] = tested on: SF-268
[27] = tested on: SNB-75
[28] = tested on: A498
[29] = tested on: BT-549
[30] = tested on: HCT-116
[31] = tested on: NCI-H226
[32] = tested on: HCT-15
[33] = tested on: MCF7
[34] = tested on: SK-MEL-5
[35] = tested on: OVCAR-5
[36] = tested on: HCC 2998
[37] = tested on: HOP-92
[38] = tested on: LOX IMVI
[39] = tested on: SK-OV-3
[40] = tested on: UACC-257
[41] = tested on: NCI/ADR-RES
[42] = tested on: NCI-H460
[43] = tested on: Malme-3M
[44] = tested on: SR
[45] = tested on: SN12C
[46] = tested on: DU-145
[47] = tested on: 786-0
[48] = tested on: COLO 205
[49] = tested on: SF-295
[50] = tested on: SW-620
[51] = tested on: Hs-578T
[52] = tested on: SNB-19
[53] = tested on: UO-31
[54] = tested on: CCRF-CEM
[55] = tested on: RPMI-8226
[56] = tested on: KM12
[57] = tested on: SK-MEL-2
[58] = tested on: TK-10
[59] = tested on: SF-539

Structure (SMILES): COC(=O)C1OC(O[C@H]2CC[C@]3(C)[C@H]4CC=C5[C@@H]6CC(C)(C)CC[C@]6(C(=O)OC)CC[C@@]5(C)[C@]4(C)CC[C@H]3C2(C)C)C(O)C(O)C1O (some centres not stated)
- GI50 [1]: 11.4 µM (inactive)
- GI50 [2]: 7.14 µM (inactive)
- GI50 [3]: 12.4 µM (inactive)
- GI50 [4]: 11.4 µM (inactive)
- GI50 [5]: 10.5 µM (inactive)
- GI50 [6]: 11.8 µM (inactive)
- GI50 [7]: 11.9 µM (inactive)
- GI50 [8]: 14.4 µM (inactive)
- GI50 [9]: 5.62 µM (inactive)
- GI50 [10]: 18.1 µM (inactive)
- GI50 [11]: 4.34 µM (inactive)
- GI50 [12]: 18.5 µM (inactive)
- GI50 [13]: 16.5 µM (inactive)
- GI50 [14]: 14.9 µM (inactive)
- GI50 [15]: 8.85 µM (inactive)
- GI50 [16]: 15.4 µM (inactive)
- GI50 [17]: 19.7 µM (inactive)
- GI50 [18]: 18 µM (inactive)
- GI50 [19]: 16.2 µM (inactive)
- GI50 [20]: 14.7 µM (inactive)
- GI50 [21]: 18 µM (inactive)
- GI50 [22]: 15.1 µM (inactive)
- GI50 [23]: 13.6 µM (inactive)
- GI50 [24]: 17 µM (inactive)
- GI50 [25]: 4.45 µM (inactive)
- GI50 [26]: 17.8 µM (inactive)
- GI50 [27]: 17.1 µM (inactive)
- GI50 [28]: 19.8 µM (inactive)
- GI50 [29]: 17.8 µM (inactive)
- GI50 [30]: 12.3 µM (inactive)
- GI50 [31]: 18.3 µM (inactive)
- GI50 [32]: 13.9 µM
- GI50 [33]: 12.5 µM (inactive)
- GI50 [34]: 18.2 µM (inactive)
- GI50 [35]: 14.6 µM (inactive)
- GI50 [36]: 7.76 µM (inactive)
- GI50 [37]: 19.4 µM (inactive)
- GI50 [38]: 6.67 µM (inactive)
- GI50 [39]: 20.2 µM (inactive)
- GI50 [40]: 19.5 µM (inactive)
- GI50 [41]: 15.8 µM (inactive)
- GI50 [42]: 8.38 µM (inactive)
- GI50 [43]: 21 µM (inactive)
- GI50 [44]: 3.72 µM (inactive)
- GI50 [45]: 13.1 µM (inactive)
- GI50 [46]: 14.5 µM (inactive)
- GI50 [47]: 6.73 µM (inactive)
- GI50 [48]: 16.1 µM (inactive)
- GI50 [49]: 15.1 µM (inactive)
- GI50 [50]: 17 µM (inactive)
- GI50 [51]: 19.9 µM (inactive)
- GI50 [52]: 15.2 µM (inactive)
- GI50 [53]: 19.3 µM (inactive)
- GI50 [54]: 5.66 µM (inactive)
- GI50 [55]: 20.1 µM (inactive)
- GI50 [56]: 7.52 µM (inactive)
- GI50 [57]: 17.3 µM (inactive)

Structure (SMILES): O=C(OC1OC2COC(=O)c3cc(O)c(O)c(O)c3-c3c(cc(O)c(O)c3O)C(=O)OC3C2OC(=O)[C@@]24CC(=O)[C@@](O)(OC25C(=O)O[C@H]2[C@@H](O)CO[C@@]25O)C2(O)Oc5c(O)c(O)cc(c5C24)C(=O)OC13)c1cc(O)c(O)c(O)c1 (some centres not stated)
- GI50 [1]: 39.6 µM (inactive)
- GI50 [2]: 27.7 µM (inactive)
- GI50 [3]: 34.8 µM (inactive)
- GI50 [4]: 40.5 µM (inactive)
- GI50 [5]: 23.2 µM (inactive)
- GI50 [6]: 32.1 µM (inactive)
- GI50 [7]: 25.7 µM (inactive)
- GI50 [8]: 37.2 µM (inactive)
- GI50 [9]: > 100 µM (inactive)
- GI50 [10]: 21.2 µM (inactive)
- GI50 [11]: 50 µM (inactive)
- GI50 [12]: > 100 µM (inactive)
- GI50 [13]: 17.2 µM (inactive)
- GI50 [14]: 30.1 µM (inactive)
- GI50 [15]: 12.1 µM (inactive)
- GI50 [16]: 19.5 µM (inactive)
- GI50 [17]: 74 µM (inactive)
- GI50 [18]: 74.5 µM (inactive)
- GI50 [19]: 49.3 µM (inactive)
- GI50 [20]: 35.7 µM (inactive)
- GI50 [21]: 75.9 µM (inactive)
- GI50 [22]: 42.3 µM (inactive)
- GI50 [23]: 37.1 µM (inactive)
- GI50 [24]: 31.5 µM (inactive)
- GI50 [25]: 0.857 µM (active)
- GI50 [26]: 58.6 µM (inactive)
- GI50 [27]: 34 µM (inactive)
- GI50 [28]: 9.12 µM (inactive)
- GI50 [29]: > 100 µM (inactive)
- GI50 [30]: 36.9 µM (inactive)
- GI50 [31]: 90.4 µM (inactive)
- GI50 [32]: 22.9 µM
- GI50 [33]: 13.6 µM (inactive)
- GI50 [34]: 42.7 µM (inactive)
- GI50 [35]: 47.2 µM (inactive)
- GI50 [36]: 28 µM (inactive)
- GI50 [37]: 31.2 µM (inactive)
- GI50 [38]: 12.6 µM (inactive)
- GI50 [39]: 83 µM (inactive)
- GI50 [40]: > 100 µM (inactive)
- GI50 [41]: 29.2 µM (inactive)
- GI50 [42]: 40.9 µM (inactive)
- GI50 [43]: > 100 µM (inactive)
- GI50 [44]: 30.3 µM (inactive)
- GI50 [45]: 56 µM (inactive)
- GI50 [46]: 44.7 µM (inactive)
- GI50 [47]: 63.1 µM (inactive)
- GI50 [48]: 56.4 µM (inactive)
- GI50 [49]: 44 µM (inactive)
- GI50 [50]: 41.2 µM (inactive)
- GI50 [51]: > 100 µM (inactive)
- GI50 [52]: > 100 µM (inactive)
- GI50 [53]: 34.8 µM (inactive)
- GI50 [54]: 26.7 µM (inactive)
- GI50 [55]: 99.5 µM (inactive)
- GI50 [56]: 18.8 µM (inactive)
- GI50 [57]: > 100 µM (inactive)

Structure (SMILES): C/C(=N\NC(N)=S)C(CN1CCCCC1)C(C1=C(O)c2ccccc2OC1)c1ccccc1 (configuration not stated)
- GI50 [58]: > 100 µM (inactive)
- GI50 [1]: > 100 µM (inactive)
- GI50 [2]: > 100 µM (inactive)
- GI50 [3]: > 100 µM (inactive)
- GI50 [4]: 64 µM (inactive)
- GI50 [5]: > 100 µM (inactive)
- GI50 [6]: > 100 µM (inactive)
- GI50 [7]: > 100 µM (inactive)
- GI50 [8]: 83 µM (inactive)
- GI50 [9]: > 100 µM (inactive)
- GI50 [10]: 36.1 µM (inactive)
- GI50 [11]: 82.4 µM (inactive)
- GI50 [12]: > 100 µM (inactive)
- GI50 [13]: > 100 µM (inactive)
- GI50 [15]: > 100 µM (inactive)
- GI50 [16]: > 100 µM (inactive)
- GI50 [17]: 79.6 µM (inactive)
- GI50 [18]: 41 µM (inactive)
- GI50 [19]: > 100 µM (inactive)
- GI50 [20]: > 100 µM (inactive)
- GI50 [21]: > 100 µM (inactive)
- GI50 [22]: > 100 µM (inactive)
- GI50 [23]: > 100 µM (inactive)
- GI50 [24]: > 100 µM (inactive)
- GI50 [25]: > 100 µM (inactive)
- GI50 [26]: > 100 µM (inactive)
- GI50 [27]: > 100 µM (inactive)
- GI50 [28]: > 100 µM (inactive)
- GI50 [29]: > 100 µM (inactive)
- GI50 [30]: > 100 µM (inactive)
- GI50 [31]: > 100 µM (inactive)
- GI50 [32]: > 100 µM
- GI50 [59]: > 100 µM (inactive)
- GI50 [33]: > 100 µM (inactive)
- GI50 [34]: > 100 µM (inactive)
- GI50 [35]: > 100 µM (inactive)
- GI50 [36]: > 100 µM (inactive)
- GI50 [37]: 22.5 µM (inactive)
- GI50 [38]: > 100 µM (inactive)
- GI50 [39]: > 100 µM (inactive)
- GI50 [40]: > 100 µM (inactive)
- GI50 [41]: > 100 µM (inactive)
- GI50 [42]: > 100 µM (inactive)
- GI50 [43]: > 100 µM (inactive)
- GI50 [44]: > 100 µM (inactive)
- GI50 [45]: > 100 µM (inactive)
- GI50 [46]: > 100 µM (inactive)
- GI50 [47]: > 100 µM (inactive)
- GI50 [48]: > 100 µM (inactive)
- GI50 [49]: > 100 µM (inactive)
- GI50 [50]: > 100 µM (inactive)
- GI50 [51]: > 100 µM (inactive)
- GI50 [52]: > 100 µM (inactive)
- GI50 [53]: > 100 µM (inactive)
- GI50 [54]: 61.1 µM (inactive)
- GI50 [55]: 35.2 µM (inactive)
- GI50 [56]: > 100 µM (inactive)
- GI50 [57]: > 100 µM (inactive)
